# Test results from patent publication US5628328A, “Method for measuring muscle mass” (priority 1995, dated 1997).
# Where two headings read alike, the source gives them in different places.
# Assays:
# [1] = Nishizawa et al.; cited from earlier work
# [2] = dogs, cited from earlier work
# [3] = cited from earlier work
# [4] = sheep, cited from earlier work
# [5] = rabbit; cited from earlier work
# [6] = cited from earlier work; remark: listed apart in the source
# [7] = cited from earlier work; remark: listed apart in the source
# [8] = parameters: species or system cattle; conditions: bovine, in vivo
# Procedure: A minimal model using 4-5 measurements and one compartment rather than three was evaluated. In the minimal model the three pools of the 3-compartment model were combined to form one homogeneous pool of 3-methylhistidine, characterized by a de novo production into the body pool and one exit from the model. The kinetic data between 720 and 4320 min was used for the analysis; this time frame corresponds to apparent linear steady state portion of the decay curve. The limitation of the 1-compartment model is the lost ability to described the entire metabolism of 3-methylhistidine. Only the rate of proteolysis and a total pool size can be estimated. […] (Rathmacher, J. et al., "The use of compartmental models of 3-methylhistidine flux to evaluate skeletal muscle protein turnover in implanted steers," J. Anim. Sci. (1993) 71:135.) However, in cattle the minimal model estimates of 3-methylhistidine production were 30% higher, but the estimates of 3-methylhistidine production were highly correlated (r=0.93, P 0.0001).
# [9] = parameters: species or system human; conditions: in vivo
# Procedure: Each study was four days in duration. Starting at t=0 (8.00 hours), subjects were administered a bolus infusion of L-3-[methyl^2 H3 ]-histidine (D3 -3-methylhistidine) at 0.13 μmol/kg into the forearm vein of the dominant arm. The infusate was passed through a Millex-GS sterilizing filter (0.22 μm; Millipore Products Divisions, Bedford, Mass.) before the infusion. Blood samples were obtained from the superficial hand vein and from the deep forearm vein at 0, 1, 2, 5, 10, 15, 30, 45, 90, 150, 210, 270, 330, and 720 min. postinjection. During this time, the subjects were required to stay at the Clinical Research Center, although they were allowed to ambulate freely within their rooms. Free access to food and drink was allowed after the 330-min sample. After 720 min, the catheters were removed and the patients were allowed to go home. For the following three days, the subjects returned to the CRC each morning before eating for further blood sampling by percutaneous venous puncture at 1,440, 2,880, and 4,320 min postinjection. Urine was collected over 24 hour periods the day before and for three days after tracer infusion.
# Blood was collected in heparinized syringes, transferred to tubes containing Na2 EDTA (15 mg/tube), and centrifuged. The plasma obtained was immediately placed on ice. An aliquot of the plasma was processed for determination of 3-methylhistidine concentration as well as the L-3-[methyl-^2 H3 ]-histidine:3-methylhistidine isotope enrichment. The remainder of the plasma was frozen at -70° C. […] Urinary 3-methylhistidine concentration and production were also measured (Rathmacher, J. A. et al., "Gas chromatographic-mass spectrometric analysis of stable isotopes of 3-methylhistidine in biological fluids: application to plasma kinetics in vivo," Biol. Mass Spectrom. (1992) 21:560-566). […]
# [10] = cited from earlier work; remark: listed apart in the source
# [11] = adult rat, Millward et al. 1980
smiles,measurement,setting,value
Cn1cnc(C[C@H](N)C(=O)O)c1 [3-methylhistidine],Contribution of skin and intestine to total body pool of 3-methylhistidine,[1],up to 10%
same,3MH Production,"[2]; n=5, from model",12 µmol/kg/day
same,"M1, compartment mass",[2]; n=5,3227 nmol/kg
same,"M2, compartment mass",[2]; n=5,7973 nmol/kg
same,"M3, compartment mass",[2]; n=5,9261 nmol/kg
same,R01 mass transfer rate,[2]; n=5,9 nmol/kg/min
same,R12 mass transfer rate,[2]; n=5,329 nmol/kg/min
same,R21 mass transfer rate,[2]; n=5,319 nmol/kg/min
same,R23 mass transfer rate,[2]; n=5,56 nmol/kg/min
same,R32 mass transfer rate,[2]; n=5,56 nmol/kg/min
same,"L0,1 fractional transfer rate",[2]; number 5,.02 min⁻¹
same,"L1,2 fractional transfer rate",[2]; number 5,.06 min⁻¹
same,"L2,1 fractional transfer rate",[2]; number 5,.11 min⁻¹
same,"L2,3 fractional transfer rate",[2]; number 5,.008 min⁻¹
same,"L3,2 fractional transfer rate",[2]; number 5,.006 min⁻¹
same,Urinary 3MH loss,[2]; number 5,100 % of total
same,3-methylhistidine excretion during exercise,[3]; humans,insignificant increase
same,3-methylhistidine excretion during recovery from exercise,[3]; humans,significant increase
same,Urinary excretion,[3]; man,quantitatively excreted in the urine
same,3MH Production,"[4]; n=36, from model",10.1 µmol/kg/day
same,"M1, compartment mass",[4]; n=36,4693 nmol/kg
same,"M2, compartment mass",[4]; n=36,11634 nmol/kg
same,"M3, compartment mass",[4]; n=36,16494 nmol/kg
same,R01 mass transfer rate,[4]; n=36,1.4 nmol/kg/min
same,R03 mass transfer rate,[4]; n=36,5.7 nmol/kg/min
same,R12 mass transfer rate,[4]; n=36,930 nmol/kg/min
same,R21 mass transfer rate,[4]; n=36,928 nmol/kg/min
same,R23 mass transfer rate,[4]; n=36,80 nmol/kg/min
same,R32 mass transfer rate,[4]; n=36,84 nmol/kg/min
same,"L0,1 fractional transfer rate",[4]; number 40,.0003 min⁻¹
same,"L0,3 fractional transfer rate",[4]; number 40,.0004 min⁻¹
same,"L1,2 fractional transfer rate",[4]; number 40,.08 min⁻¹
same,"L2,1 fractional transfer rate",[4]; number 40,.21 min⁻¹
same,"L2,3 fractional transfer rate",[4]; number 40,.005 min⁻¹
same,"L3,2 fractional transfer rate",[4]; number 40,.007 min⁻¹
same,Urinary 3MH loss,[4]; number 40,17 % of total
same,Urinary excretion of total daily 3-methylhistidine produced,[4],15%
same,Urinary excretion,[5],quantitatively excreted in the urine
same,Urinary excretion,"[6]; pigs, retained in muscle as balenine",not quantitatively excreted in urine
same,3-methylhistidine excreted into urine,"[6]; swine, of 3-methylhistidine from muscle metabolism",less than 2%
same,3MH Production,"[7]; pigs, n=20, from model",7.2 µmol/kg/day
same,"M1, compartment mass","[7]; pigs, n=20",1110 nmol/kg
same,"M2, compartment mass","[7]; pigs, n=20",2857 nmol/kg
same,"M3, compartment mass","[7]; pigs, n=20",6151 nmol/kg
same,R03 mass transfer rate,"[7]; pigs, n=20",5.0 nmol/kg/min
same,R12 mass transfer rate,"[7]; pigs, n=20",247 nmol/kg/min
same,R21 mass transfer rate,"[7]; pigs, n=20",247 nmol/kg/min
same,R23 mass transfer rate,"[7]; pigs, n=20",32 nmol/kg/min
same,R32 mass transfer rate,"[7]; pigs, n=20",37 nmol/kg/min
same,Urinary excretion of total daily 3-methylhistidine produced,[7]; pigs,1.5 %/d
same,"L0,3 fractional transfer rate","[7]; swine, number 20",.0009 min⁻¹
same,"L1,2 fractional transfer rate","[7]; swine, number 20",.09 min⁻¹
same,"L2,1 fractional transfer rate","[7]; swine, number 20",.23 min⁻¹
same,"L2,3 fractional transfer rate","[7]; swine, number 20",.006 min⁻¹
same,"L3,2 fractional transfer rate","[7]; swine, number 20",.014 min⁻¹
same,Urinary 3MH loss,"[7]; swine, number 20",1 % of total
same,"3-methylhistidine production, minimal model above 3-compartment model",[8],30%
same,Model 3-methylhistidine production above urinary estimate,[9],16%
same,Model 3-methylhistidine production versus urinary production,[9],qualitatively similar
same,Urinary 3-methylhistidine production versus model estimate,[9],lower than the model estimate
same,Contribution of skin and intestine to 3-methylhistidine excreted per day in urine,"[10]; adult rat, Millward and Bates",17%
same,Contribution of gastrointestinal tract to 3-methylhistidine excreted,[10]; [11],10%
same,Contribution of skeletal muscle to 3-methylhistidine excreted,[10]; [11],25%
same,Contribution of skin to 3-methylhistidine excreted,[10]; [11],7%
same,Reutilization for protein synthesis,[10]; no specific tRNA,not reutilized for protein synthesis
same,Share of total bound 3-methylhistidine in skeletal muscle,"[10]; rat organs, Haverberg et al., skin and intestine not assessed",98%
same,Urinary excretion,[10]; rat,quantitatively excreted in the urine
same,Contribution of small intestine to 24-hour urinary excretion,"[10]; rats, duodenoileostomy",did not make a significant contribution
